# Results from PubChem BioAssay AID1648 (Sanford-Burnham Center for Chemical Genomics, 2009).
# Active and inactive are the calls of the source. The rule behind the calls is not given here.
# Target: Serine/threonine-protein kinase mTOR (Homo sapiens) (UniProt P42345)
# Assay: binders of mTOR FRB domain, biophysical, NMR (AID 1648)
# Details: NMR binding to FRB domain, chemical shift
# Sequence of Serine/threonine-protein kinase mTOR (Homo sapiens) (P42345 2015-2114): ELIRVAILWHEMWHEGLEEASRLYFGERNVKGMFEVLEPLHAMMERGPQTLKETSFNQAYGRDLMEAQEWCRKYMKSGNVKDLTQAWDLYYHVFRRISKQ
row,SMILES,Kd
1,COc1cc([C@@H]2c3cc4c(cc3[C@H](O)[C@H]3COC(=O)[C@H]23)OCO4)cc(OC)c1OC,> 4 mM (inactive)
2,c1ccc(Cc2nnc3sc(-c4cccnc4)nn23)cc1,> 4 mM (inactive)
3,Cc1cc(S(=O)(=O)N2CCOCC2)ccc1F,> 4 mM (inactive)
4,C[C@@H]1OC(O[C@H]2[C@H](OC(=O)[C@]34CCC(C)(C)CC3C3=CCC5[C@@]6(C)CC[C@H](OC7O[C@@H](C)[C@H](O[C@@H]8OC[C@@H](O)[C@H](O)[C@H]8O)[C@@H](O)[C@H]7O)C(C)(C)C6CC[C@@]5(C)[C@]3(C)CC4O)OC[C@H](O)[C@H]2O)[C@H](O)[C@H](O)[C@H]1O[C@@H]1O[C@H](CO)[C@@H](O)[C@H](O)[C@H]1O (some centres not stated),> 4 mM (inactive)
5,CC(=O)O[C@@H]1CC2C(C)(C)[C@@H](O)CC[C@]2(C)C2CC[C@@]3(C)[C@H](c4ccoc4)OC(=O)[C@H]4O[C@]43[C@@]21C (some centres not stated),> 4 mM (inactive)
6,CN1CCC(NC(=O)c2c(F)cccc2Cl)CC1,> 4 mM (inactive)
7,O=C(Oc1ccc(-c2nnco2)cc1)N1CCCCC1,> 4 mM (inactive)
8,COc1ccc(-c2cc(=O)c3ccccc3o2)cc1,> 4 mM (inactive)
9,COc1ccc2nc(N)sc2n1,> 4 mM (inactive)
10,COc1ccc(-c2cc(=O)c3c(OC(C)=O)cc(OC(C)=O)cc3o2)cc1,> 4 mM (inactive)
11,c1ccc(CCc2nc(-c3ccncc3)no2)cc1,> 4 mM (inactive)
12,OCc1ccncc1,> 4 mM (inactive)
13,CN1CCC(NC(=S)NC2CC2)CC1,> 4 mM (inactive)
14,Nc1cc(C(=O)O)ccc1N1CCCCCC1,> 4 mM (inactive)
15,COc1c(O)cccc1O,> 4 mM (inactive)
16,COC(=O)c1ccc(C(=S)N2CCOCC2)cc1,> 4 mM (inactive)
17,O=C(O)/C=C1\NC(=O)c2ccccc21,> 4 mM (inactive)
18,Cc1ccccc1C(=O)Nn1cnnc1,> 4 mM (inactive)
19,CS(C)=C1C(=O)NC(=O)N(c2ccccc2)C1=O,> 4 mM (inactive)
20,O=C(CSc1nc2ccccc2[nH]1)N1CCCCC1,> 4 mM (inactive)
21,Cc1cc(=O)n2[nH]cnc2n1,> 4 mM (inactive)

row,SMILES,Kd
1,CCc1ccccc1NC(=O)c1cnccn1,> 4 mM (inactive)
2,OC12C=CC(CC1)CC2,> 4 mM (inactive)
3,NCc1ccc2sccc2c1,> 4 mM (inactive)
4,CC(=O)CNc1cc(CNC(C)=O)c(C)cc1C,> 4 mM (inactive)
5,CC1SC(=NC(=O)c2ccncc2)NC1=O (configuration not stated),> 4 mM (inactive)
6,O=C(/C=C/c1ccc(O)c(O)c1)O[C@@H]1C[C@](O)(C(=O)O)C[C@@H](O)[C@H]1O,> 4 mM (inactive)
7,O=S(=O)(Cc1ccccc1)N1CCCCCC1,> 4 mM (inactive)
8,CC(=O)Nc1ccc(NC(C)=O)cc1,> 4 mM (inactive)
9,NC(=O)c1ccc(Cl)c(N2C(=O)CCC2=O)c1,> 4 mM (inactive)
10,COc1ccc(CN2CCNC(=O)C2CC(=O)O)cc1C (configuration not stated),> 4 mM (inactive)
11,CS(=O)(=O)c1cccc(C(=O)Nc2nccs2)c1,> 4 mM (inactive)
12,COc1cccc(-c2nc3ccc(O)cc3c(=O)o2)c1,> 4 mM (inactive)
13,Cc1c(C(=O)Nc2ccccn2)oc2ccccc12,> 4 mM (inactive)
14,O=C(NCc1cccs1)c1nc2ncccn2n1,> 4 mM (inactive)
15,COCc1cc(=O)oc2cc(O)c(Cl)cc12,> 4 mM (inactive)
16,CC(=O)c1cccc(NC(=O)C=C(C)C)c1,> 4 mM (inactive)
17,O=S1(=O)C=CC(Nc2ccccc2)C1 (configuration not stated),> 4 mM (inactive)
18,CS(=O)(=O)Nc1ccc(C(=O)N2CCCCC2)cc1,> 4 mM (inactive)
19,Cn1cc(C(=O)N/N=C/c2ccccc2)ccc1=O,> 4 mM (inactive)
20,CCOc1nc(C)ccc1-c1noc(-c2ccncc2)n1,> 4 mM (inactive)
21,COC(=O)CSc1nc(N)cc(=O)[nH]1,> 4 mM (inactive)

row,SMILES,Kd
1,O=C(NCc1ccco1)c1nc2ncccn2n1,> 4 mM (inactive)
2,COC(=O)C1CCc2ccccc2N1 (configuration not stated),> 4 mM (inactive)
3,CCNS(=O)(=O)c1ccc(OC)c(C)c1,> 4 mM (inactive)
4,Cc1onc(-c2ccccc2)c1C(=O)O,> 4 mM (inactive)
5,COc1cc([C@@H]2c3cc4c(cc3[C@H](OC(C)=O)[C@H]3COC(=O)[C@@H]23)OCO4)cc(OC)c1OC,> 4 mM (inactive)
6,Cc1c(CO)cnn1-c1ccc(F)cc1,> 4 mM (inactive)
7,Nc1ccc2sccc2c1,> 4 mM (inactive)
8,CC(C)(C)CC(=O)N1CCC(C(N)=O)CC1,> 4 mM (inactive)
9,CC1=NN(C(N)=S)C(C)(C)C1,> 4 mM (inactive)
10,Cc1c(N=CN2CCOCC2)c(=O)n(C)c(=O)n1C,> 4 mM (inactive)
11,Nc1ncnc2nc(SCCN3CCCCC3)[nH]c12,> 4 mM (inactive)
12,CCCCCCCCCCCCCc1ccco1,> 4 mM (inactive)
13,COC(=O)c1c(SC)nc(-c2ccccc2)[nH]c1=O,> 4 mM (inactive)
14,O=C(O)c1ccc(N2CCOCC2)cc1,> 4 mM (inactive)
15,Cc1cc(C)nc(N(C#N)Cc2ccccc2)n1,> 4 mM (inactive)
16,O=C(CN1C(=O)c2cccc3cccc(c23)C1=O)NO,> 4 mM (inactive)
17,O=C(c1cccnc1Cl)N1CCOCC1,> 4 mM (inactive)
18,Cc1ccccc1C(=O)Nc1cccc(N)c1,> 4 mM (inactive)
19,CC(=O)c1c(O)cc(O)cc1O,> 4 mM (inactive)
20,O=C(O)CCC(=O)Nc1ccccc1F,> 4 mM (inactive)
21,Cc1nccn1CCC(=O)O,> 4 mM (inactive)

row,SMILES,Kd
1,CSc1ccccc1NC(=O)c1cnccn1,> 4 mM (inactive)
2,CC(C)=CCc1c2c(c(O)c3c(=O)c(O)c(-c4ccccc4)oc13)C=CC(C)(C)O2,> 4 mM (inactive)
3,COC(=O)C[C@H]1C2(C)CC34OC5(C)O[C@@]6([C@H](OC)C(OC(=O)C(C)C)[C@]7(C)C(/C(=C(/OC)C(C)C)C(=O)O[C@H]7c7ccoc7)[C@@]6(O5)[C@H](OC)[C@@]3(OC)C2OC(C)=O)[C@]14C (some centres not stated),> 4 mM (inactive)
4,O=C1NC(=S)N/C1=C\c1cccnc1,> 4 mM (inactive)
5,O=C(Nc1ccccc1)c1cccc(N2C(=O)CCC2=O)c1,> 4 mM (inactive)
6,C/C(O)=c1/sc2cc(C)nc(=N)n2c1=O,> 4 mM (inactive)
7,OCC1CN(Cc2ccccc2)CCO1 (configuration not stated),> 4 mM (inactive)
8,NS(=O)(=O)c1ccc(F)cc1,> 4 mM (inactive)
9,Cn1cc(Cl)c(C(=O)NC2CCCC2)n1,> 4 mM (inactive)
10,Cc1nn(-c2ccccc2)nc1C(=O)O,> 4 mM (inactive)
11,CC(=O)Oc1cc(OC(C)=O)c2c(c1)O[C@H](c1ccc(OC(C)=O)c(OC(C)=O)c1)[C@H](OC(C)=O)C2,> 4 mM (inactive)
12,NC(=O)c1cc(Cl)c(C(N)=O)cc1Cl,> 4 mM (inactive)
13,O=C1CCN(c2ccccc2)N1,> 4 mM (inactive)
14,O=C(O)[C@H](O)[C@@](O)(Cc1ccc(O)cc1)C(=O)O,> 4 mM (inactive)
15,Cc1cc(C(=O)N2CCN(c3ncccn3)CC2)cs1,> 4 mM (inactive)
16,NC(=O)CC[C@H](N)C(=O)O,> 4 mM (inactive)
17,Cc1cc(C(=O)Nc2cccnc2)no1,> 4 mM (inactive)
18,O=C(O)c1csc(-c2ccccc2)n1,> 4 mM (inactive)
19,Cc1sc2nc(C)n(NC(N)=O)c(=O)c2c1C,> 4 mM (inactive)
